{
  "source": "ChEMBL document CHEMBL2073746",
  "about": "“Inhibitory effect of the reversal agents V-104, GF120918 and Pluronic L61 on MDR1 Pgp-, MRP1- and MRP2-mediated transport” (Br J Cancer, 2000)",
  "type_in_all_cases": "functional, cell-based",
  "key": {"[1]": {"biological_target": "T1, ATP-dependent translocase ABCB1 (Homo sapiens, UniProt P08183)", "T1 sequence (P08183 whole entry)": "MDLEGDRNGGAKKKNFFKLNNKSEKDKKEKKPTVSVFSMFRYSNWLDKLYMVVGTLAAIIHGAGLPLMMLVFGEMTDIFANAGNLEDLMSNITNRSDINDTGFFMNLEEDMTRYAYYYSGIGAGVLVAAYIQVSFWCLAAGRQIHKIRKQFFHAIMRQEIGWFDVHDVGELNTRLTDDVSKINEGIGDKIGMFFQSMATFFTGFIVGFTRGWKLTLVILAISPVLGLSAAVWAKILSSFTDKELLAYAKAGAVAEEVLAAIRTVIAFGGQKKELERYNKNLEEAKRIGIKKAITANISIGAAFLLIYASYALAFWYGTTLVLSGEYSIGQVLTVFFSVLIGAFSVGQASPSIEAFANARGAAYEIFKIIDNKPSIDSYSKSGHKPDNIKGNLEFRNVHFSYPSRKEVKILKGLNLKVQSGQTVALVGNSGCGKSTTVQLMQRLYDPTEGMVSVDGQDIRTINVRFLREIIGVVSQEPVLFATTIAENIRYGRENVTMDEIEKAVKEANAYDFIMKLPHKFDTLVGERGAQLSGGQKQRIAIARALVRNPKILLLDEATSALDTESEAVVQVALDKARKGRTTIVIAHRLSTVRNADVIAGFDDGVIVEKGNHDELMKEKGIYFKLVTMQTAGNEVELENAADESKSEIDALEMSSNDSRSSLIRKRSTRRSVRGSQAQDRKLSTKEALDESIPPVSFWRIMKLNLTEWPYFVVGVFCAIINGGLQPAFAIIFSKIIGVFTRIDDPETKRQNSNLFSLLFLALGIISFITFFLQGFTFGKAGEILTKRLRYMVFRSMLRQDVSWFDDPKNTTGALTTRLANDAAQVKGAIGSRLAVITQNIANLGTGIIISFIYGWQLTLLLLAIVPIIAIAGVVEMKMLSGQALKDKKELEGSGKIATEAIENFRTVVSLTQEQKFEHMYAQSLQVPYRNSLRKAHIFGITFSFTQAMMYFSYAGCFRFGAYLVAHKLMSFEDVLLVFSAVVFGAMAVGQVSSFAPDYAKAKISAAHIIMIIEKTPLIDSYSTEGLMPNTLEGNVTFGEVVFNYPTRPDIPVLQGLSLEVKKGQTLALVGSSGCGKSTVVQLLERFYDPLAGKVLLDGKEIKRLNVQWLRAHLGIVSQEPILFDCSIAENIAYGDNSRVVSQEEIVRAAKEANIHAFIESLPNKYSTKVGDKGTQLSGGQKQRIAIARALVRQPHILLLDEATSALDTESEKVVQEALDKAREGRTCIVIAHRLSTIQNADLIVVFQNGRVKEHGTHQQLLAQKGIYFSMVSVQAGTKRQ", "experiment": "TP_TRANSPORTER: inhibition of Daunorubicin transepithelial transport (basal to apical)(Daunorubicin: 2 uM, V-104: 15 uM) in MDR1-expressing MDCKII cells", "details": "dog, mdck-ii"}, "[2]": {"biological_target": "ATP-binding cassette sub-family C member 2 (Homo sapiens, UniProt Q92887)", "sequence (Q92887 whole entry)": "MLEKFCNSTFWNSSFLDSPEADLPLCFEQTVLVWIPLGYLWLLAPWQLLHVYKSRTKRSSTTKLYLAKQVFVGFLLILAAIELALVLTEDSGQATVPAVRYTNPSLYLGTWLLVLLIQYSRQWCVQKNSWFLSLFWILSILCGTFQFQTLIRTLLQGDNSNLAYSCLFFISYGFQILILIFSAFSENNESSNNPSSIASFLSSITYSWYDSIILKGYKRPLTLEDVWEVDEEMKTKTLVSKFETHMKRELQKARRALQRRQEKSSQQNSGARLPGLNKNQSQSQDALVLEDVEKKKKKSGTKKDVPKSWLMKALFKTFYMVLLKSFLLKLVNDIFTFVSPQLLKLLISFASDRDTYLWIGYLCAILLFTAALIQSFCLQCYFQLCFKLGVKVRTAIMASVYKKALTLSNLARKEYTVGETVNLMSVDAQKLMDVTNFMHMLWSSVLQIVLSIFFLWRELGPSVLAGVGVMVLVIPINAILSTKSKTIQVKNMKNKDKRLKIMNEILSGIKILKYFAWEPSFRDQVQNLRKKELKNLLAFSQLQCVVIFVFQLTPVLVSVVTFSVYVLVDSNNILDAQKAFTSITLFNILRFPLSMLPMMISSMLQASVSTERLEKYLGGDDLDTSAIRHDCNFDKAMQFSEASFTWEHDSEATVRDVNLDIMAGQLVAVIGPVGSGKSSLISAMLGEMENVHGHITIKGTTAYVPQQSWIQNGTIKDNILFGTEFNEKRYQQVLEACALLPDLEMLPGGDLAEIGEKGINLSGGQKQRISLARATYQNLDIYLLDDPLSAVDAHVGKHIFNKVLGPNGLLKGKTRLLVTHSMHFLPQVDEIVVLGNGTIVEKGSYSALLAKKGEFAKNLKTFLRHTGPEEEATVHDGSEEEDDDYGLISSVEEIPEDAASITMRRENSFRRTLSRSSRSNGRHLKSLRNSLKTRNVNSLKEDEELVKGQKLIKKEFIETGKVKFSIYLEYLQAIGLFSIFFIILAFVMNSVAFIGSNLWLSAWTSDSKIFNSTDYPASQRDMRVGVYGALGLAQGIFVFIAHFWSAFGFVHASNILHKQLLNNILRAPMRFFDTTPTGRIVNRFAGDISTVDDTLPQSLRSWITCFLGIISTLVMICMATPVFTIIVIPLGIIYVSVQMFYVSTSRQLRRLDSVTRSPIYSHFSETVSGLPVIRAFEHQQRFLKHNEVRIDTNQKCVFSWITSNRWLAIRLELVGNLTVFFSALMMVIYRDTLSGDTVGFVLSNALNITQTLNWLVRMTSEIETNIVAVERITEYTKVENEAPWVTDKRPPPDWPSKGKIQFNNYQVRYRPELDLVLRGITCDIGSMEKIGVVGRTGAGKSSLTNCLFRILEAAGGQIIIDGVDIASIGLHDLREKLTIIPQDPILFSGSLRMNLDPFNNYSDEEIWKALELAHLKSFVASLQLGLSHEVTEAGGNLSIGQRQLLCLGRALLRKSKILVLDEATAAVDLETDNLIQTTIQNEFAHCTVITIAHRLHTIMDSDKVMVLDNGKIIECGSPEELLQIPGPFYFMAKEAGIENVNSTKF", "experiment": "TP_TRANSPORTER: inhibition of Vinblastine transepithelial transport (basal to apical)(Vinblastine: 2 uM, Pluronic L61: 0.1%) in MRP2-expressing MDCKII cells", "details": "dog, mdck-ii"}, "[3]": {"biological_target": "T1, ATP-dependent translocase ABCB1", "experiment": "TP_TRANSPORTER: inhibition of Vinblastine transepithelial transport (basal to apical) (Vinblastine: 2 uM, Pluronic L61: 0.04%) in MDR1-expressing LLC-PK1 cells", "details": "pig"}},
  "data": [
    {"molecule": "COc1cc(C(=O)C(=O)N2CCCC[C@H]2C(=O)O)cc(OC)c1OC", "values": [
      {"measurement": "Activity", "setting": "[1]", "result": "inhibitor [+]"}
    ]},
    {"molecule": "PLURONIC L61", "values": [
      {"measurement": "Activity", "setting": "[2]", "result": "inhibitor [+]"},
      {"measurement": "Activity", "setting": "[3]", "result": "inhibitor [+]"}
    ]}
  ]
}
